In the assay the test system is BDF1 mice, P388 leukemia ip, median survival T/C. The assay can be described thus: NCI In Vivo Anticancer Drug Screen. Data for tumor model P388 Leukemia (intraperitoneal) in B6D2F1 (BDF1) mice. The following applies: endpoint: median survival time, higher = longer survival. In short, it runs like this: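 In tumour-bearing mice, survival after compound treatment is set against the vehicle group and given as a quotient.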

The mark [1] stands for this setting: dose: 50.0 mg/kg/injection, schedule: Q01DX009 (ip), vehicle: saline with Tween-80.
[2] abbreviates: dose: 50.0 mg/kg/injection, schedule: Q04DX003 (ip), vehicle: saline.
Setting [3] is: dose: 100.0 mg/kg/injection, schedule: Q01DX009 (ip), vehicle: saline with Tween-80.
Setting [4] is: dose: 100.0 mg/kg/injection, schedule: Q04DX003 (ip), vehicle: saline.
Setting [5] is: dose: 100.0 mg/kg/injection, schedule: Q04DX003 (ip), vehicle: saline with Tween-80.
[6] abbreviates: dose: 200.0 mg/kg/injection, schedule: Q01DX009 (ip), vehicle: saline with Tween-80.
The mark [7] stands for this setting: dose: 200.0 mg/kg/injection, schedule: Q04DX003 (ip), vehicle: saline with Tween-80.

SMILES strings stand for the structures. Values joined by “and” are separate entries in the source; they are usually repeats but may differ in a detail not shown here. Equal values may be shown once. Inconclusive results and toxic doses are left out.

For `C[n+]1ccccc1/C=C/c1cccc([N+](=O)[O-])c1`, the T/C is 95 % of control (dose: 5.0 mg/kg/injection, schedule: Q04DX003 (ip), vehicle: saline with Tween-80); 104 % of control (dose: 10.0 mg/kg/injection, schedule: Q04DX003 (ip), vehicle: saline with Tween-80); 109 % of control (dose: 20.0 mg/kg/injection, schedule: Q04DX003 (ip), vehicle: saline with Tween-80).
As to `O=c1ccc2c([nH]1)CCC2`, the T/C is 86 % of control (dose: 25.0 mg/kg/injection, schedule: Q01DX009 (ip), vehicle: saline with Tween-80); 100 % of control (dose: 25.0 mg/kg/injection, schedule: Q04DX003 (ip), vehicle: saline); 90 % of control under setting [1]; 95 % of control under setting [2]; 95 % of control under setting [3]; 100 % of control under setting [4].
Turning to `Cc1cc(N(CCCl)CCCl)ccc1C=Nc1cccc(Cl)c1`, the T/C reads like this: under setting [1], 103 % of control; under setting [3], 119 % of control; under setting [5], 118 % of control; under setting [6], 96 % of control; under setting [7], 118 % of control.
Regarding `COC(=O)CCSC(c1ccccc1)(c1ccccc1)c1ccccc1`, the T/C (dose: 87.0 mg/kg/injection, schedule: Q01DX009 (ip), vehicle: Klucel (hydroxypropylcellulose) (HPC)) is 96 % of control.
With `Nc1nc(=O)n(CC(=O)c2cccs2)cc1F`, the T/C by setting is: under setting [1], 100 % of control; under setting [3], 90 % of control; under setting [5], 95 % of control; under setting [6], 86 % of control; under setting [7], 100 % of control.
`O=C(NC1CCCCC1)N(c1ccccc1)c1nnc(-c2cccc([N+](=O)[O-])c2)s1`: the T/C reads like this: under setting [1], 104 % of control; under setting [3], 95 % of control; under setting [6], 115 % of control.
For `COc1cc2c(c(OC)c1OC)-c1ccc(OC)c(=O)cc1[C@@H](N)CC2`, the T/C (dose: 1.25 mg/kg/injection, schedule: Q01DX009 (ip), vehicle: water) is 120 % of control; the T/C (dose: 2.0 mg/kg/injection, schedule: Q01DX010 (ip), vehicle: water) is 160 % of control; the T/C (dose: 5.0 mg/kg/injection, schedule: Q01DX009 (ip), vehicle: water) is 94 % of control; the T/C (dose: 20.0 mg/kg/injection, schedule: Q04DX003 (ip), vehicle: Klucel (hydroxypropylcellulose) (HPC)) was 176 % of control; the T/C (dose: 30.0 mg/kg/injection, schedule: Q04DX003 (ip), vehicle: Klucel (hydroxypropylcellulose) (HPC)) is 98 % of control; the T/C (dose: 45.0 mg/kg/injection, schedule: Q04DX003 (ip), vehicle: Klucel (hydroxypropylcellulose) (HPC)) was 89 % of control.
As for `CS(=O)(=O)OCCSc1nc2ccccc2n1Cc1ccccc1`, the T/C reads like this: (dose: 25.0 mg/kg/injection, schedule: Q01DX001 (ip), vehicle: saline with Tween-80) 100 % of control; (dose: 50.0 mg/kg/injection, schedule: Q01DX001 (ip), vehicle: saline with Tween-80) 106 % of control; (dose: 100.0 mg/kg/injection, schedule: Q01DX001 (ip), vehicle: saline with Tween-80) 101 % of control.
For the molecule `O=C(NNc1ccccc1)C(F)(F)F`, the T/C reads like this: (dose: 12.5 mg/kg/injection, schedule: Q01DX009 (ip), vehicle: Klucel (hydroxypropylcellulose) (HPC)) 90 % of control; (dose: 25.0 mg/kg/injection, schedule: Q01DX009 (ip), vehicle: Klucel (hydroxypropylcellulose) (HPC)) 95 % of control; (dose: 37.5 mg/kg/injection, schedule: Q04DX003 (ip), vehicle: saline with Tween-80) 100 % of control; (dose: 50.0 mg/kg/injection, schedule: Q01DX009 (ip), vehicle: Klucel (hydroxypropylcellulose) (HPC)) 110 % of control; (dose: 56.25 mg/kg/injection, schedule: Q01DX001 (ip), vehicle: saline with Tween-80) 104 % of control; (dose: 75.0 mg/kg/injection, schedule: Q04DX003 (ip), vehicle: saline with Tween-80) 104 % of control. Moreover, the T/C (dose: 112.5 mg/kg/injection, schedule: Q01DX001 (ip), vehicle: saline with Tween-80) was 100 % of control.
As for `Nc1ncnc2c1ncn2C1OC(CO)CC1O` (configuration not stated), the T/C was 108 % of control (dose: 4.68 mg/kg/injection, schedule: Q01DX009 (ip), vehicle: Klucel (hydroxypropylcellulose) (HPC)); 106 % of control (dose: 9.37 mg/kg/injection, schedule: Q01DX009 (ip), vehicle: Klucel (hydroxypropylcellulose) (HPC)); 106 % of control (dose: 18.75 mg/kg/injection, schedule: Q01DX009 (ip), vehicle: Klucel (hydroxypropylcellulose) (HPC)); 111 % of control (dose: 37.5 mg/kg/injection, schedule: Q01DX009 (ip), vehicle: Klucel (hydroxypropylcellulose) (HPC)); 106 % of control (dose: 75.0 mg/kg/injection, schedule: Q01DX009 (ip), vehicle: Klucel (hydroxypropylcellulose) (HPC)); 106 % of control (dose: 150.0 mg/kg/injection, schedule: Q01DX009 (ip), vehicle: Klucel (hydroxypropylcellulose) (HPC)).
Take `O=C1N(c2ccccc2)CCC12CCNCC2`: the T/C (dose: 50.0 mg/kg/injection, schedule: Q01DX009 (ip), vehicle: saline) is 94 % of control and the T/C (dose: 100.0 mg/kg/injection, schedule: Q01DX009 (ip), vehicle: saline) is 94 % of control.
With `CC[n+]1ccc(Nc2ccc(NC(=O)c3ccc(C(=O)Nc4ccc(Nc5cc[n+](CC)c(N)n5)cc4)cc3)cc2)nc1N`, the T/C was 150 % of control (dose: 0.12 mg/kg/injection, schedule: Q01DX009 (ip), vehicle: saline); 150 % of control (dose: 0.25 mg/kg/injection, schedule: Q01DX009 (ip), vehicle: saline); 100 % of control (dose: 0.25 mg/kg/injection, schedule: Q04DX003 (ip), vehicle: Klucel (hydroxypropylcellulose) (HPC)); 155 % of control (dose: 0.5 mg/kg/injection, schedule: Q01DX009 (ip), vehicle: saline); 95 % of control (dose: 0.5 mg/kg/injection, schedule: Q04DX003 (ip), vehicle: Klucel (hydroxypropylcellulose) (HPC)); 109 % of control (dose: 1.0 mg/kg/injection, schedule: Q04DX003 (ip), vehicle: Klucel (hydroxypropylcellulose) (HPC)). For the same molecule, the T/C runs as follows: (dose: 1.65 mg/kg/injection, schedule: Q01DX009 (ip), vehicle: saline) 160 % of control; (dose: 2.5 mg/kg/injection, schedule: Q01DX009 (ip), vehicle: saline) 175 % of control and 177 % of control; (dose: 3.75 mg/kg/injection, schedule: Q01DX009 (ip), vehicle: saline) 170 % of control; (dose: 5.0 mg/kg/injection, schedule: Q04DX003 (ip), vehicle: saline) 177 % of control; (dose: 10.0 mg/kg/injection, schedule: Q01DX009 (ip), vehicle: saline) 190 % of control; (dose: 20.0 mg/kg/injection, schedule: Q01DX009 (ip), vehicle: saline) 300 % of control. Also, the T/C is 195 % of control (dose: 30.0 mg/kg/injection, schedule: Q04DX003 (ip), vehicle: saline); 200 % of control (dose: 45.0 mg/kg/injection, schedule: Q04DX003 (ip), vehicle: saline); 200 % of control under setting [2]; 216 % of control (dose: 65.0 mg/kg/injection, schedule: Q04DX003 (ip), vehicle: saline); 109 % of control (dose: 80.0 mg/kg/injection, schedule: Q01DX009 (ip), vehicle: saline); 250 % of control and 263 % of control under setting [4]. Also, the T/C by setting is: (dose: 150.0 mg/kg/injection, schedule: Q04DX003 (ip), vehicle: saline) 104 % of control; (dose: 2.5 micrograms/kg/injection, schedule: Q01DX009 (ip), vehicle: saline) 90 % of control; (dose: 5.0 micrograms/kg/injection, schedule: Q01DX009 (ip), vehicle: saline) 95 % of control; (dose: 10.0 micrograms/kg/injection, schedule: Q01DX009 (ip), vehicle: saline) 100 % of control.
As to `CCOC(=O)C12CC=CC(CCC1)/C2=N\Nc1ccccc1` (configuration not stated), the T/C reads like this: under setting [3], 90 % of control; under setting [6], 90 % of control; (dose: 400.0 mg/kg/injection, schedule: Q01DX009 (ip), vehicle: saline with Tween-80) 117 % of control.
With `C/C(=N\NC(=S)N(C)C)c1ccccn1`, the T/C (dose: 1.56 mg/kg/injection, schedule: Q01DX009 (ip), vehicle: saline with Tween-80) was 105 % of control and the T/C (dose: 3.12 mg/kg/injection, schedule: Q01DX009 (ip), vehicle: saline with Tween-80) is 100 % of control.
`CCN(CC)C(N)=Nc1ccc(NC(=O)c2ccc(C(=O)Nc3ccc(N=C(N)N(CC)CC)cc3)cc2)cc1`: the T/C reads like this: (dose: 3.12 mg/kg/injection, schedule: Q01DX009 (ip), vehicle: saline) 151 % of control; (dose: 6.25 mg/kg/injection, schedule: Q01DX009 (ip), vehicle: saline) 196 % of control; (dose: 12.5 mg/kg/injection, schedule: Q01DX009 (ip), vehicle: saline) 105 % of control.

(Values after PubChem BioAssay AID328 (DTP/NCI, 2004).)
